Numbered stars: 1 amine (or outer) side, 2 acyl side, 3 side chain; on linkers, the order of the positions; unused ones are H or OH. Square brackets hold non-standard residues; d marks the D form. Side chains are listed from the residue outwards. Peptide text beside a SMILES is read from it. * marks the point of attachment. C20 diacid = O=C(O)CCCCCCCCCCCCCCCCCCC(=O)*; C18 diacid = O=C(O)CCCCCCCCCCCCCCCCC(=O)*; αMePhe(2-F) = C[C@](N)(Cc1ccccc1F)C(=O)O; γGlu = O=C(O)[C@H](CCC(=O)[*:2])N[*:1]; αMeF = C[C@](N)(Cc1ccccc1)C(=O)O; αMeL = CC(C)C[C@](C)(N)C(=O)O; AEEA = NCCOCCOCC(=O)O; Aib = CC(C)(N)C(=O)O
Experiments:
[1] = target: T1, gastric inhibitory peptide receptor (GIPR) (Homo sapiens, UniProt P48546); assay: cAMP pharmacological functional assay in presence of casein, hGIPR; format: cell-based; conditions: HEK293 cells expressing hGIPR, 0.1% Casein, geometric mean; read-out: hGIPR cAMP Rel EC50 nM (SEM, n)
T1 sequence (P48546 22-466): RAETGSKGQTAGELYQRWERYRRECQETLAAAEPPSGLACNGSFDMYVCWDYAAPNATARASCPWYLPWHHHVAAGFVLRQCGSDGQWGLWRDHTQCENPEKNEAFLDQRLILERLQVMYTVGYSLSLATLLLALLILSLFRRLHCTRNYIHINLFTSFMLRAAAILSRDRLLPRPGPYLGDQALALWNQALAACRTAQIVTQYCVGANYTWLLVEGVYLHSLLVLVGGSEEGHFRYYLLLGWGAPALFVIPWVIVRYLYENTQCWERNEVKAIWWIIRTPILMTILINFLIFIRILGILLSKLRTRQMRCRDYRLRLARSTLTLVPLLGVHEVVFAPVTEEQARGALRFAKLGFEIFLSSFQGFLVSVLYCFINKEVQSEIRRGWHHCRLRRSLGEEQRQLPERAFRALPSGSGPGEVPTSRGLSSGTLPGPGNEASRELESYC

[2] = target: human GLP-1 receptor (GLP-1R) (Homo sapiens, UniProt P43220); assay: cAMP pharmacological functional assay in presence of casein, hGLP-1R; format: cell-based; conditions: HEK293 cells expressing hGLP-1R, 0.1% Casein, geometric mean; read-out: hGLP1R cAMP Rel EC50 nM (SEM, n)
Sequence of human GLP-1 receptor (GLP-1R) (P43220 24-463): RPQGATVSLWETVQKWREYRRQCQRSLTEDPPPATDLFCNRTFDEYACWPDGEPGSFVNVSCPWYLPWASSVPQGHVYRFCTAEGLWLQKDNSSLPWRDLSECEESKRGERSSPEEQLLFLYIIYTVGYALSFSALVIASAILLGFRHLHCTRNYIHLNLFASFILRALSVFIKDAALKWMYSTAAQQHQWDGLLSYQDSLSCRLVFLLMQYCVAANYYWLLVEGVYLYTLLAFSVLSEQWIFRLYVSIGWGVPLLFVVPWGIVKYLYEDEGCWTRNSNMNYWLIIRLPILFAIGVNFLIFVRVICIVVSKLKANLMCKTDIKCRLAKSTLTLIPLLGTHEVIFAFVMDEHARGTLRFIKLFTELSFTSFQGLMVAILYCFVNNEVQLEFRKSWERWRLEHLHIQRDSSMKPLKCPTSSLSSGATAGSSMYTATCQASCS

human GLP-1R = human GLP-1R (Homo sapiens, UniProt P43220); assay: [125I]-GLP-1 binding (SPA), human GLP-1 receptor; set-up: expressed in transfected cells; crude membranes; conditions: read-out: hGLP1R Ki, (nM) (SEM, n)
Sequence of human GLP-1R (P43220 24-463): as above
Procedure, shortened: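 Ki values are geometric means with SEM over independent replicates on different days, derived from IC50s fitted by four-parameter nonlinear regression. The assay used crude cell membranes in HEPES buffer, pH 7.4, containing CaCl2, MgCl2, bacitracin and TWEEN-20.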

human GIP receptor = target: T2, human GIP receptor (Homo sapiens, UniProt P48546); assay: [125I]-GIP binding (SPA), human GIP receptor; conditions: read-out: hGIPR Ki, nM (SEM, n)
T2 construct: expressed in transfected cells; crude membranes
T2 sequence (P48546 22-466): T1 sequence (P48546 22-466)

human Gcg receptor = target: T3, human Gcg receptor (Homo sapiens, UniProt P47871); assay: [125I]-Glucagon binding (SPA), human Gcg receptor; conditions: read-out: hGLcgR Ki, nM (SEM, n)
T3 construct: expressed in transfected cells; crude membranes
T3 sequence (P47871 26-477): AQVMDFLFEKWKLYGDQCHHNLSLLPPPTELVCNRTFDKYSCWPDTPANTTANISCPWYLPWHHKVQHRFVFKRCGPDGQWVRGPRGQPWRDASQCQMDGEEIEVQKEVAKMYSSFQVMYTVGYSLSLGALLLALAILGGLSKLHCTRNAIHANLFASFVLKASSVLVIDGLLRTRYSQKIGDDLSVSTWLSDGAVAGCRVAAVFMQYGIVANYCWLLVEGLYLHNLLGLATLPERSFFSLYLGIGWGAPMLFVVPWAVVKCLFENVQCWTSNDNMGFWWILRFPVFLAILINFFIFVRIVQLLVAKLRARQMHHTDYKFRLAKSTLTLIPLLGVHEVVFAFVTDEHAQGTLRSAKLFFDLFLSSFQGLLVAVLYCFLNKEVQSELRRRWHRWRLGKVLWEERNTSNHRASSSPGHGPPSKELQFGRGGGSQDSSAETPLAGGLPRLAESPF
Procedure, shortened: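 Cell pellets were lysed in hypotonic Tris buffer, pH 7.5, homogenized, and spun at low then high speed to give crude membranes. Ki was derived from the fitted IC50.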

SMILES	EC50 [1] [nM]	EC50 [2] [nM]	Ki (human GLP-1R) [nM]	Ki (human GIP receptor) [nM]	Ki (human Gcg receptor) [nM]
CC[C@H](C)[C@H](NC(=O)[C@H](CCCCN)NC(=O)[C@H](CC(=O)O)NC(=O)[C@H](CC(C)C)NC(=O)[C@H](CC(C)C)NC(=O)[C@@H](NC(=O)[C@H](CO)NC(=O)[C@H](Cc1ccc(O)cc1)NC(=O)[C@H](CC(=O)O)NC(=O)[C@H](CO)NC(=O)[C@@H](NC(=O)[C@H](Cc1ccccc1)NC(=O)[C@@H](NC(=O)CNC(=O)[C@H](CCC(=O)O)NC(=O)C(C)(C)NC(=O)[C@@H](N)Cc1ccc(O)cc1)[C@@H](C)O)[C@@H](C)O)[C@@H](C)CC)C(=O)N[C@@H](C)C(=O)N[C@@H](CCC(N)=O)C(=O)NC(C)(C)C(=O)N[C@@H](C)C(=O)N[C@@H](Cc1ccccc1)C(=O)N[C@H](C(=O)N[C@@H](CCC(=O)O)C(=O)N[C@@H](Cc1ccc(O)cc1)C(=O)N[C@@H](CC(C)C)C(=O)N[C@H](C(=O)N[C@@H](CCCCNC(=O)COCCOCCNC(=O)COCCOCCNC(=O)CC[C@H](NC(=O)CCCCCCCCCCCCCCCCCCC(=O)O)C(=O)O)C(=O)NCC(=O)NCC(=O)N1CCC[C@H]1C(=O)N[C@@H](CO)C(=O)N[C@@H](CO)C(=O)NCC(=O)N[C@@H](C)C(=O)N1CCC[C@H]1C(=O)N1CCC[C@H]1C(=O)N1CCC[C@H]1C(=O)N[C@@H](CO)C(N)=O)[C@@H](C)CC)[C@@H](C)CC [Example 37] (H-Y[Aib]EGTFTSDYSILLDKIAQ[Aib]AFIEYLIK([AEEA-AEEA-γGlu-C20 diacid])GGPSSGAPPPS-NH2)	0.269	1.15	3.84	0.0523	255
CC[C@H](C)[C@H](NC(=O)[C@H](CCCCN)NC(=O)[C@H](CC(=O)O)NC(=O)[C@H](CC(C)C)NC(=O)[C@H](CC(C)C)NC(=O)[C@@H](NC(=O)[C@H](CO)NC(=O)[C@H](Cc1ccc(O)cc1)NC(=O)[C@H](CC(=O)O)NC(=O)[C@H](CO)NC(=O)[C@@H](NC(=O)[C@H](Cc1ccccc1)NC(=O)[C@@H](NC(=O)CNC(=O)[C@H](CCC(=O)O)NC(=O)C(C)(C)NC(=O)[C@@H](N)Cc1ccc(O)cc1)[C@@H](C)O)[C@@H](C)O)[C@@H](C)CC)C(=O)N[C@@H](C)C(=O)N[C@@H](CCC(N)=O)C(=O)NC(C)(C)C(=O)N[C@@H](C)C(=O)N[C@@H](Cc1ccccc1)C(=O)N[C@H](C(=O)N[C@@H](CCC(=O)O)C(=O)N[C@@H](Cc1ccc(O)cc1)C(=O)N[C@@H](CC(C)C)C(=O)N[C@H](C(=O)N[C@@H](CCC(=O)O)C(=O)NCC(=O)NCC(=O)N1CCC[C@H]1C(=O)N[C@@H](CCCCNC(=O)COCCOCCNC(=O)COCCOCCNC(=O)CC[C@H](NC(=O)CCCCCCCCCCCCCCCCCCC(=O)O)C(=O)O)C(=O)N[C@@H](CO)C(=O)NCC(=O)N[C@@H](C)C(=O)N1CCC[C@H]1C(=O)N1CCC[C@H]1C(=O)N1CCC[C@H]1C(=O)N[C@@H](CO)C(N)=O)[C@@H](C)CC)[C@@H](C)CC [Example 41] (H-Y[Aib]EGTFTSDYSILLDKIAQ[Aib]AFIEYLIEGGPK([AEEA-AEEA-γGlu-C20 diacid])SGAPPPS-NH2)	0.229	0.96	13.4	0.0551	165
CC[C@H](C)[C@H](NC(=O)[C@H](CC(C)C)NC(=O)[C@H](Cc1ccc(O)cc1)NC(=O)[C@H](CCC(=O)O)NC(=O)[C@@H](NC(=O)[C@H](Cc1ccccc1)NC(=O)[C@H](CCC(=O)O)NC(=O)C(C)(C)NC(=O)[C@H](CCC(N)=O)NC(=O)[C@H](C)NC(=O)[C@H](CCCCNC(=O)COCCOCCNC(=O)COCCOCCNC(=O)CC[C@H](NC(=O)CCCCCCCCCCCCCCCCCCC(=O)O)C(=O)O)NC(=O)[C@H](CCC(=O)O)NC(=O)[C@H](CC(=O)O)NC(=O)[C@H](CC(C)C)NC(=O)[C@](C)(CC(C)C)NC(=O)[C@@H](NC(=O)[C@H](CO)NC(=O)[C@H](Cc1c[nH]cn1)NC(=O)[C@H](CC(=O)O)NC(=O)[C@H](CO)NC(=O)[C@@H](NC(=O)[C@](C)(Cc1ccccc1F)NC(=O)[C@@H](NC(=O)CNC(=O)[C@H](CCC(=O)O)NC(=O)C(C)(C)NC(=O)[C@@H](N)Cc1ccc(O)cc1)[C@@H](C)O)[C@@H](C)O)[C@@H](C)CC)[C@@H](C)CC)C(=O)N[C@@H](CCC(=O)O)C(=O)NCC(=O)NCC(=O)N1CCC[C@H]1C(=O)N[C@@H](CO)C(=O)N[C@@H](CO)C(=O)NCC(=O)N[C@@H](C)C(=O)N1CCC[C@H]1C(=O)N1CCC[C@H]1C(=O)N1CCC[C@H]1C(=O)N[C@@H](CO)C(N)=O [Example 154] (H-Y[Aib]EGT[αMePhe(2-F)]TSDHSI[αMeL]LDEK([AEEA-AEEA-γGlu-C20 diacid])AQ[Aib]EFIEYLIEGGPSSGAPPPS-NH2)	0.0266	0.0393	5.64	0.061	762
CC[C@H](C)[C@H](NC(=O)[C@H](CC(C)C)NC(=O)[C@H](Cc1ccc(O)cc1)NC(=O)[C@H](CCC(=O)O)NC(=O)[C@@H](NC(=O)[C@H](Cc1ccccc1)NC(=O)[C@H](C)NC(=O)C(C)(C)NC(=O)[C@H](CCC(N)=O)NC(=O)[C@H](C)NC(=O)[C@H](CCCCNC(=O)COCCOCCNC(=O)COCCOCCNC(=O)CC[C@H](NC(=O)CCCCCCCCCCCCCCCCCCC(=O)O)C(=O)O)NC(=O)[C@H](CCCCN)NC(=O)[C@H](CC(=O)O)NC(=O)[C@H](CC(C)C)NC(=O)[C@H](CC(C)C)NC(=O)[C@@H](NC(=O)[C@H](CO)NC(=O)[C@H](CCC(=O)O)NC(=O)[C@H](CC(=O)O)NC(=O)[C@H](CO)NC(=O)[C@@H](NC(=O)[C@](C)(Cc1ccccc1)NC(=O)[C@@H](NC(=O)CNC(=O)[C@H](CCC(=O)O)NC(=O)C(C)(C)NC(=O)[C@@H](N)Cc1ccc(O)cc1)[C@@H](C)O)[C@@H](C)O)[C@@H](C)CC)[C@@H](C)CC)C(=O)N[C@@H](CCC(=O)O)C(=O)NCC(=O)NCC(=O)N1CCC[C@H]1C(=O)N[C@@H](CO)C(=O)N[C@@H](CO)C(=O)NCC(=O)N[C@@H](C)C(=O)N1CCC[C@H]1C(=O)N1CCC[C@H]1C(=O)N1CCC[C@H]1C(=O)N[C@@H](CO)C(N)=O [Example 130] (H-Y[Aib]EGT[αMeF]TSDESILLDKK([AEEA-AEEA-γGlu-C20 diacid])AQ[Aib]AFIEYLIEGGPSSGAPPPS-NH2; N-terminus assumed)	1.55	0.368	3.66	0.177	> 1060
CC[C@H](C)[C@H](NC(=O)[C@H](CC(C)C)NC(=O)[C@H](Cc1ccc(O)cc1)NC(=O)[C@H](CCC(=O)O)NC(=O)[C@@H](NC(=O)[C@H](Cc1ccccc1)NC(=O)[C@H](C)NC(=O)[C@H](CCC(N)=O)NC(=O)[C@H](CCC(N)=O)NC(=O)[C@H](C)NC(=O)[C@H](CCCCNC(=O)COCCOCCNC(=O)COCCOCCNC(=O)CC[C@H](NC(=O)CCCCCCCCCCCCCCCCC(=O)O)C(=O)O)NC(=O)[C@H](CCCCN)NC(=O)[C@H](CC(=O)O)NC(=O)[C@H](CC(C)C)NC(=O)[C@H](CC(C)C)NC(=O)[C@@H](NC(=O)[C@H](CO)NC(=O)[C@H](Cc1ccc(O)cc1)NC(=O)[C@H](CC(=O)O)NC(=O)[C@H](CO)NC(=O)[C@@H](NC(=O)[C@H](Cc1ccccc1)NC(=O)[C@@H](NC(=O)CNC(=O)[C@H](CCC(=O)O)NC(=O)C(C)(C)NC(=O)[C@@H](N)Cc1ccc(O)cc1)[C@@H](C)O)[C@@H](C)O)[C@@H](C)CC)[C@@H](C)CC)C(=O)N[C@@H](CCC(=O)O)C(=O)NCC(=O)NCC(N)=O [Example 294] (H-Y[Aib]EGTFTSDYSILLDKK([AEEA-AEEA-γGlu-C18 diacid])AQQAFIEYLIEGG-NH2)	0.183	0.185	2.92	0.205	629
